Data as given in patent publication US20150004110A1, “NOVEL ANTI-AGING AND DEPIGMENTING COSMETIC COMPOSITIONS” (DIVERCHIM, priority 2011, published 2015).

Tests used:
[1] = test system: matrix metallopeptidase gene MMP9; experiment: RT-qPCR expression of MMP9 in keratinocytes; type: cell-based, human; settings: 10 μM
Protocol: The expression of the specific markers was evaluated by RT-qPCR (reverse transcription quantitative polymerase chain reaction) on messenger RNAs extracted from the cell lawns from each treatment. The transcriptomic profile contains 64 genes selected for their importance in keratinocyte differentiation. The PCR reactions (polymerase chain reactions) were carried out by quantitative PCR with the “Light Cycler” system (Roche Molecular System Inc.) according to the procedures recommended by the supplier. Normal human epidermal keratinocytes were incubated in the presence of compound 1 or a reference with calcium chloride. The expression of the specific markers was evaluated by RT-qPCR on the messenger RNAs extracted from the cell lawns from each treatment.

PPARα (h) [2] = biological target: T1, PPARα (h) (Homo sapiens, UniProt Q07869); experiment: PPARα antagonist effect, coactivator Alpha screen; type: biochemical
T1 sequence (Q07869 1-468): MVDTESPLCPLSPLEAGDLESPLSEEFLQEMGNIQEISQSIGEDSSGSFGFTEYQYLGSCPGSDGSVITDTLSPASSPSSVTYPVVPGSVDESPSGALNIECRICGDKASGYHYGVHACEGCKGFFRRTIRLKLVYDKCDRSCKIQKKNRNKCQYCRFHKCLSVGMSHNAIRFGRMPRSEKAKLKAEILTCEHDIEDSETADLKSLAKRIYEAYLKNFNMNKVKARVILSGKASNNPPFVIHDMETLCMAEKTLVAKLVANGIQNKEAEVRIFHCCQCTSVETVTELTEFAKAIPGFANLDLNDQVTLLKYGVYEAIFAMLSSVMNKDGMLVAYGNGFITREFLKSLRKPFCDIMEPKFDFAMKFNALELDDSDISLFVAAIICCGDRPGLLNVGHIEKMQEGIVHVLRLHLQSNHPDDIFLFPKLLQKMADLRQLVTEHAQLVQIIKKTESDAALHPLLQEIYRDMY
Protocol: The agonist or antagonist activity of compound 1 on the PPAR receptors was tested by fluorescence techniques. • Material and Methods
The results are expressed as: • percentage of control specific agonist response (measured specific response/control specific agonist response)×100) and • percentage inhibition of the control specific agonist response (100−((measured specific response)/control specific agonist response)×100)) obtained in the presence of compound 1.
The EC50 values (concentration at which the maximum specific response is 50%) and the IC50 values (concentration at which the maximum control specific agonist response is inhibited by 50%) are determined by non-linear regression analysis of the concentration-response curves with a mean replicated value using adjustment of Hill's equation
For the antagonists, the apparent dissociation constants (KB) were calculated using the modified Cheng-Prusoff equation

PPARα (h) [3] = biological target: T1, PPARα (h); experiment: PPARα competitive radioligand binding assay (Cerep)
Protocol: The affinity of compound 1 for the PPAR receptors (α and γ) was tested by in vitro binding assays (tests carried out by the company Cerep).
This is a nuclear receptor competitive binding assay, between a radiolabelled ligand and the test molecule (here compound 1).
The principle of the technique consists of measuring the displacement of the radioactive ligand bound to the receptor by the test molecule. • Material and Methods
The specific binding of the ligand is defined by the difference between total binding and non-specific binding determined in the presence of an excess of unlabelled ligand.
The results are expressed as: • percentage of control specific binding ((measured specific binding/control specific binding)×100)) • percentage of inhibition of control specific binding ((100−(measured specific binding/control specific binding)) obtained in the presence of compound 1.
The values of IC50 (concentration at which the maximum control specific binding is inhibited by 50%), and the Hill coefficient (nH) are determined by non-linear regression analysis of the curves of competition with a mean replicated value using adjustment of Hill's equation
The inhibition constant (Ki) was calculated using the Cheng-Prusoff equation

Which results are given for `Oc1ccccc1CCOc1ccc(F)cc1` [Compound 1, 2-[2-(4-fluoro-phenoxy)-ethyl]-phenol]?
Expression of the MMP9 gene [1]: inhibition of expression; inhibition at 10 µM (PPARα (h) [2]; 10^−5 M, read-out: % Inhibition of control agonist response): 4%; inhibition at 1 µM (PPARα (h) [2]; 10^−6 M, read-out: % Inhibition of control agonist response): 0%; inhibition at 0.1 µM (PPARα (h) [2]; 10^−7 M, read-out: % Inhibition of control agonist response): 1%; PPARα antagonist activity (conclusion in words) (PPARα (h) [2]; 10^−7 to 10^−5 M): not an antagonist; inhibition at 10 µM (PPARα (h) [3]; 10^−5 M, agonist radioligand, read-out: % Inhibition of control specific binding): 0%; inhibition at 1 µM (PPARα (h) [3]; 10^−6 M, agonist radioligand, read-out: % Inhibition of control specific binding): -2%; inhibition at 0.1 µM (PPARα (h) [3]; 10^−7 M, agonist radioligand, read-out: % Inhibition of control specific binding): -5%; Activity with respect to the PPARα receptor (binding, conclusion in words) (PPARα (h) [3]; 10^−7 to 10^−5 M): no activity
